# Experimental data as given in paper PMC3873466 (PLoS ONE, 2013).
# Tests used:
# [1] = target: F. tularensis ParE (full length) (Francisella tularensis, UniProt A0A0J9WZF0); assay: biochemical
# [2] = target: E. coli GyrB (full length) (Escherichia coli, UniProt P0AES6); assay: biochemical
# F. tularensis ParE (full length), sequence (A0A0J9WZF0 whole entry, looked up): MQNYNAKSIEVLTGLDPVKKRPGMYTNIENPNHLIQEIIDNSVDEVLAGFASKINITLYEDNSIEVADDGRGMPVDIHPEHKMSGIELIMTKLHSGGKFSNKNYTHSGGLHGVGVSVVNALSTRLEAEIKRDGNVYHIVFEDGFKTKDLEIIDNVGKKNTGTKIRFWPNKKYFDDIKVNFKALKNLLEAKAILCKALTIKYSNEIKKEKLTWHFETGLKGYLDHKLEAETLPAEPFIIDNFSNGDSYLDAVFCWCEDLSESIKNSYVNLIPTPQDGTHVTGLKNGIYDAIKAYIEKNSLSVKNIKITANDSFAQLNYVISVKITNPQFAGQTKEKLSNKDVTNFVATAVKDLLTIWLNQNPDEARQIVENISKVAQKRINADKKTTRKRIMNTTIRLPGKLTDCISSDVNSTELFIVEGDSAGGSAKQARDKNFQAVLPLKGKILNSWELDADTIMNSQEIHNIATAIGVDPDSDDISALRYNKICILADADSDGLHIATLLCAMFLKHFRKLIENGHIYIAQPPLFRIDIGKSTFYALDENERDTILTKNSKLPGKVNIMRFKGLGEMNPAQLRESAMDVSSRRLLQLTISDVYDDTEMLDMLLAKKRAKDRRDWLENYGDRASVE
smiles,measurement,setting,value
"CNc1cc(F)cc2c1[nH]c1nc(Oc3cnc(C)nc3)nc(N3C[C@H]4CCN[C@H]4C3)c12 [C3, 6-fluoro-4-((3aR,6aR)-hexahydropyrrolo[3,4-b]pyrrol-5(1H)-yl)-N-methyl-2-((2-methylpyrimidin-5-yl)oxy)-9H-pyrimido[4,5-b]indol-8-amine]",Ki,[1],< 0.4 nM
"CNc1cc(F)cc2c1[nH]c1nc(Oc3cnc(C)nc3)nc(N3C[C@@H]4[C@H](N)C[C@]4(C)C3)c12 [C4, 4-((1S,5R,6R)-6-amino-1-methyl-3-azabicyclo[3.2.0]heptan-3-yl)-6-fluoro-N-methyl-2-((2-methylpyrimidin-5-yl)oxy)-9H-pyrimido[4,5-b]indol-8-amine]",Ki,[1],0.8 nM
same,Ki,[2],0.3 nM
